Experiments:
[1] = test system: microorganisms
[2] = test system: Daphnia magna

Substance: Starch Maleate Half Ester, Crosslinked with 0.08 Eq. Triglycol Dichloride [Example 21]
- toxicity for microorganisms [1]: no toxicity
- toxic product destroying the aquatic flora [2]: no toxic product have been detected

Reference: patent US20030027787A1, “Crosslinked polysaccharide, obtained by crosslinking with substituted polyethylene glycol, as superabsorbant” (GROUP LYSAC INC./LYSAC GROUP INC., priority 2000, published 2003)
